Measurements as given in patent publication US9242001B2, “Cationic lipids for therapeutic agent delivery formulations” (Nitto Denko Corporation, priority 2011, dated 2016).

Tested on: gp46 mRNA
Experiment: pHSC in vitro assay, gp46 gene knockdown by qRT-PCR
Format: cell-based, rat
Conditions: @ 50 nM

Compound: CCCCCCCCCCCC(=O)OCCN(CCOC(=O)CCCCCCCCCCC)C(=O)C[N+](C)(C)CCO.[Br-] [HEDC-12, 2-(bis(2-(dodecanoyloxy)ethyl)amino)-N-(2-hydroxyethyl)-N,N-dimethyl-2-oxoethanaminium bromide]
- in vitro (pHSC) % KD: i. 0% @ 50 nM

Compound: CCCCC/C=C\C/C=C\CCCCCCCC(=O)OCCN(CCOC(=O)CCCCCCC/C=C\C/C=C\CCCCC)C(=O)C[N+](C)(C)CCO.[Br-] [HEDC-DLin, 2-(bis(2-((9Z,12Z)-octadeca-9,12-dienoyloxy)ethyl)amino)-N-(2-hydroxyethyl)-N,N-dimethyl-2-oxoethanaminium bromide]
- in vitro (pHSC) % KD: i. 50% @ 50 nM
